Test results reported in patent US7410797B2, “Meningeal-derived stem cells” (priority 2002, dated 2008).

Experiments:
Dural cells = experiment: Osseous differentiation of dural cells plated on substrate (alkaline phosphatase staining); format: cell-based; details: substrate 100 μg/cm^2
Procedure: Dural cells were forced to adopt a bony phenotype by two separate methods. The first included plating these cells on a MATRIGEL or laminin substrate (100 μg/cm^2).

Cells from the meninges = experiment: Neural differentiation of meningeal-derived stem cells in induction media; format: cell-based; details: for effect on neural differentiation compared with dexamethasone: used as substitutes for dexamethasone
Procedure: Cells from the meninges that are allowed to become 70% confluent (FIG. 2A) are susceptible to differentiating into nerve under two conditions: antioxidant treatment and steroid hormone treatment. […] This can also be achieved with other antioxidants (i.e., reducing agents), such as butylated hydroxyanisole (BHA) (approximately 200 μM), dithiothreitol (DTT; i.e., Cleland's reagent), as well as dithioerythritol, tributylphosphine, iodoacetamide, tris-phosphine HCl, deoxythymidine-triphosphate trilithium salt, diethylthiatricarbocyanine perchlorate, diethylthiatricarbocyanine iodide and DECROLINE D (available from BASF Corporation; Mount Olive, N.J.; generic name zinc formaldehyde sulfoxylate). These conditions are similar to those used to differentiate bone marrow-derived stem cells and adipose-derived stem cells (D. Woodbury et al., “Adult rat and human bone marrow stromal cells differentiate into neurons,” J. Neuroscience Res., 61(4):364-70 (2000)). The cells that form have a bipolar morphology and express nerve-specific markers.
The cells differentiate into what are morphologically distinct subsets of neurons when exposed to small concentrations (e.g, 100 nM) of dexamethasone; a steroid hormone.
These may therefore be used as substitutes for dexamethasone. Other steroids that may be used in accordance with this embodiment of the present invention include pregnenolone, aldosterone, testosterone, estradiol and cortisol.

## laminin
Dural cells
  expression of alkaline phosphatase (differentiated bone marker): expressed alkaline phosphatase (a differentiated bone marker) within seven days

## vitamin A
Cells from the meninges
  effect on neural differentiation compared with dexamethasone: elicited similar effects to dexamethasone

## OCCS [β-mercaptoethanol]
Cells from the meninges; pre-induction media with 1 mM β-mercaptoethanol for 24 hours, then induction media DMEM, 5 mM β-mercaptoethanol, cells 70% confluent
  differentiation into neural-like cells: differentiate into neural-like cells within six hours

## CC1=C(/C=C/C(C)=C/C=C/C(C)=C/C=O)C(C)(C)CCC1 [retinaldehyde]
Cells from the meninges
  effect on neural differentiation compared with dexamethasone: elicited similar effects to dexamethasone

## C=C1/C(=C\C=C2/CCC[C@]3(C)[C@@H]([C@H](C)CCCC(C)(C)O)CC[C@@H]23)C[C@@H](O)C[C@@H]1O [1,25-dihydroxy vitamin D3]
Cells from the meninges
  effect on neural differentiation compared with dexamethasone: elicited similar effects to dexamethasone

## CC1=C(/C=C/C(C)=C/C=C/C(C)=C/CO)C(C)(C)CCC1 [retinol]
Cells from the meninges
  effect on neural differentiation compared with dexamethasone: elicited similar effects to dexamethasone
